Measured values from patent US9458460B2, “Pharmaceutical compositions for treating cancer” (National University of Singapore, priority 2011, dated 2016).
pIC50: −log10 of the molar value. Like-named read-outs stand apart in the source and are kept apart here.

Key:
Type in all cases: cell-based
[1] = system: BMP4; assay: BMP4 expression after 5-azadC treatment
Experimental: (§1) Gastric cancer cell lines were treated with 5-aza-2′-deoxycytidine (5-azadC), a chemical inhibitor of DNA methyltransferases to investigate if BMP4 gene expression is regulated by BMP4 promoter methylation.

[2] = system: SMAD1/5/8; assay: phosphorylation of BMP-downstream targets after 5-azadC treatment
Experimental: as §1

[3] = system: AGS cells; assay: cisplatin growth inhibition (GI50) in GC cell lines; conditions: 48 hrs
Experimental: (§2) 20 GC cell lines were treated with increasing concentrations of cisplatin, from 0.1 μM to 1 mM. For each line, the cisplatin GI50, referring to the concentration of cisplatin required to cause 50% growth inhibition at 48 hrs.

[4] = system: YCC11 cells; assay: as above; conditions: 48 hrs
Experimental: as §2

[5] = system: GC cells; assay: high-content screening of morpho-cellular parameters after cisplatin treatment
Experimental: The reason for cell growth inhibition caused by cisplatin was determined using high-content screening (HCS), a cell-based technology allowing biological responses to be measured at the single-cell level, to quantify levels of caspase-3 activation in GC cells after cisplatin treatment. Five distinct morpho-cellular parameters were quantified for alterations induced by cisplatin—caspase3 activation, nuclear size, nuclear condensation, nuclear morphology and nuclear ellipticity.

[6] = system: AZ521 cells; assay: cisplatin growth inhibition and caspase-3 activation in BMP4-manipulated cells; conditions: for GI50: read-out: absolute GI50
[7] = system: YCC11 cells; assay: as above; conditions: for pIC50: read-out: absolute 0150

Row | SMILES | BMP4 transcripts ([1]; cisplatin sensitive lines YCC10 and YCC11 (BMP4 promoter methylated)) | BMP4 expression ([1]; resistant cell lines MKN45 and AZ521 (BMP4 promoter unmethylated)) | phosphorylated SMAD1/5/8 ([2]; cisplatin resistant lines MKN45 and AZ521) | phosphorylation of SMAD1/5/8 ([2]; cisplatin sensitive lines YCC10 and YCC11) | GI50 [3] | GI50 [4] | caspase-3 activation levels ([5]; cisplatin-sensitive lines compared to cisplatin-resistant lines) | nuclear ellipticity ([5]; top four sensitive lines compared to resistant lines) | GI50 ([6]; BMP4-silenced AZ521 cells (individual clones 1 and 2)) | caspase-3 activation levels ([6]; BMP4-silenced AZ521 cells compared to control cells, after cisplatin treatment) | GI50 ([6]; parental AZ521 cells) | pIC50 ([7]; BMP4-overexpressing YCC11 cells (individual clones 1 and 2)) | active Caspase-3 levels ([7]; BMP4-overexpressing YCC11 cells, after cisplatin) | pIC50 ([7]; parental YCC11 cells)
1 | Nc1ncn([C@H]2C[C@H](O)[C@@H](CO)O2)c(=O)n1 [5-azadC, 5-aza-2′-deoxycytidine] | up-regulated | did not alter | not affected | increased | – | – | – | – | – | – | – | – | – | –
2 | N.N.[Cl][Pt][Cl] [cisplatin, cis-diamminedichloroplatinum (II)] | – | – | – | – | 126000 nM | 1500 nM | Significantly higher | Significant changes | 1100 to 3240 nM | significantly higher | 15000 nM | 6.30 to 6.70 | reduction | 7.35
